According to patent US20220047552A1, “RAF-1 KINASE INHIBITOR COMPOUNDS FOR SKELETAL MUSCLE MODULATION, METHODS AND USES THEREOF” (SOCIETE DES PRODUITS NESTLE S.A., priority 2018, published 2022):

Experiments:
[1] = tested on: human primary muscle stem cells; assay: Assay for muscle stem cell commitment (Pax7/MyoD immunofluorescence high content screening); type: cell-based; settings: human primary myoblasts, 96 hours
Source text: The inventors developed a high content screening to test in vitro compounds on human primary adult muscle cells. Human Skeletal Muscle Myoblasts (HSMM) were purchased from Lonza (https://bioscience.lonza.com). These cells were isolated from the upper arm or leg muscle tissue of normal donors and used after the second passage. Several donors have been tested to ensure cell viability and purity before selecting the final donor which was a person. The primary screening assay was based on the high content detection of two important myogenic regulatory factors (Pax7 and MyoD) by immunofluorescence. Pax7 and MyoD are the major hallmarks of muscle stem cell stemness and commitment and can be used to monitor muscle stem cell progeny. In particular, Pax7 marks early amplification while MyoD is a later marker for myogenic commitment, and combinations of these markers define the different states of proliferation, differentiation and self-renewal. […] Human primary myoblasts were seeded in 384 well plates at a density of 1'000 cells per well in skeletal muscle growth medium (SKM-M, AMSbio). For treatment, compounds were directly added to the myoblast cultures 16 hours after initial plating. All cultures were then grown for 96 hours. […] Custom module analysis based on Multi-Wavelength Cell Scoring of the MetaXpress software was used for quantification.

[2] = tested on: human primary muscle cells; assay: Assay for myogenesis (troponin-T myotube detection); type: cell-based; settings: human primary myoblasts, differentiation medium, 96 hours, dose dependent response
Source text: In order to confirm the results from the primary assay described above, a secondary assay for myogenesis in vitro on all the hits obtained in this primary screening assay. This secondary assay focused on the later stage of myogenesis when the muscle cells fuse together and form multinucleated myotubes. This assay was based on the detection of the mature troponin-T protein that is expressed in myotubes. In particular, two measurements were made: Fusion factor, which is the % of nuclei that are inside the multinucleated myotubes compare to total nuclei and give a readout for muscle cell differentiation. Myotube area, which is measured based on the Troponin T staining and give a readout on the myotube size and muscle fiber growth. Human primary myoblasts were seeded in 384 well plates at a density of 3'000 cells per well in skeletal muscle growth medium (SKM-M, AMSbio). After one day, the differentiation is induced by a medium change. For treatment, compounds were directly added to the myoblast cultures for 96 hours. Myotubes were stained for TroponinT expression using antibodies directed against TroponinT and counterstained with Hoechst 33342 to visualize cell nuclei. Image acquisition was performed using the ImageXpress (Molecular Devices) platform. Custom module analysis based on Multi-Wavelength Cell Scoring of the MetaXpress software was used for quantification.

## O=C1Nc2ccc(I)cc2C1=Cc1cc(Br)c(O)c(Br)c1 [GW5074, 3-(3,5-Dibromo-4-hydroxy-benzylidene)-5-iodo-1,3-dihydro-indol-2-one]
[1]; FIG. 1A, dose-dependent response, MyoD+ = Pax7-/MyoD+
  proportion of MyoD+ cells as percent of total cell number (myogenic commitment): increase in the proportion of MyoD+ cells
[1]; FIG. 1B, dose dependent response, Pax7+ regardless of MyoD expression
  number of Pax7+ cells (expansion of muscle stem cells): increase in Pax7+ cells
[2]; FIG. 2A
  myogenic differentiation (Fusion Factor, percent nuclei within troponinT-positive myotubes): enhanced myogenic differentiation
[2]; FIG. 2B
  myofiber growth (area covered by troponinT-positive myotubes): enhanced
